Test results published in patent US8399452B2, “Dibenzo[b,f][1,4]oxazepin-11-yl-N-hydroxybenzamides as HDAC inhibitors” (Methylgene Inc., priority 2006, dated 2013).

biological target: histone deacetylase (HDAC Enzyme); test: Inhibition of Histone Deacetylase Enzymatic Activity (Boc-Lys(Ac)-AMC, Fluor-de-Lys developer); type: biochemical; conditions: Table 9; read-out: HDAC Inhibition (IC50 μM) HDAC Enzyme
Procedure: The following protocol is used to assay the compounds of the invention.
The mixture is pre-incubated for 5 minutes at room temperature. The reaction is started by bringing the temperature to 37° C. and adding 16 μl substrate. Total reaction volume is 50 μl.
In the Tables 8, 9 and 10, A≦[…]<B≦0.1 μM; 0.1 μM<C≦1 μM; and 1 μM<D≦10 μM.

`O=C(NO)c1ccc(N2C[C@@H]3C[C@H]2CN3c2cccc(C(F)(F)F)c2)cc1F` [2-fluoro-N-hydroxy-4-((1S,4S)-5-(3-(trifluoromethyl)phenyl)-2,5-diazabicyclo[2.2.1]heptan-2-yl)benzamide] was tested. Which IC50 did it give?
The IC50 was 0.1 to 1 µM.

For `N#Cc1cccc(N2C[C@@H]3C[C@H]2CN3c2ccc(C(=O)NO)cc2)c1` [4-((1S,4S)-5-(3-cyanophenyl)-2,5-diazabicyclo[2.2.1]heptan-2-yl)-N-hydroxybenzamide], which IC50 is on record?
Its IC50 is 0.1 to 1 µM.

With `O=C(NO)c1cnc(N2C[C@@H]3C[C@H]2CN3C(=O)OCc2ccccc2)nc1` [(1S,4S)-benzyl 5-(5-(hydroxycarbamoyl)pyrimidin-2-yl)-2,5-diazabicyclo[2.2.1]heptane-2-carboxylate] as the molecule, how does the IC50 read?
The IC50 was less than 0.05 µM.

Which IC50 does the source give for `O=C(NO)c1cnc(N2C[C@@H]3C[C@H]2CN3C(=O)OC2CCCC2)nc1` [(1S,4S)-cyclopentyl 5-(5-(hydroxycarbamoyl)pyrimidin-2-yl)-2,5-diazabicyclo[2.2.1]heptane-2-carboxylate] here?
The IC50 was less than 0.05 µM.

For `O=C(NO)c1cnc(N2C[C@@H]3C[C@H]2CN3C(=O)OCC2CC2)nc1` [(1S,4S)-cyclopropylmethyl 5-(5-(hydroxycarbamoyl)pyrimidin-2-yl)-2,5-diazabicyclo[2.2.1]heptane-2-carboxylate], which IC50 is on record?
The IC50 was less than 0.05 µM.

With `CC(C)COC(=O)N1C[C@@H]2C[C@H]1CN2c1ncc(C(=O)NO)cn1` [(1S,4S)-isobutyl 5-(5-(hydroxycarbamoyl)pyrimidin-2-yl)-2,5-diazabicyclo[2.2.1]heptane-2-carboxylate] as the molecule, how does the IC50 read?
The IC50 was less than 0.05 µM.

For `CC(C)OC(=O)N1C[C@@H]2C[C@H]1CN2c1ncc(C(=O)NO)cn1` [(1S,4S)-isopropyl 5-(5-(hydroxycarbamoyl)pyrimidin-2-yl)-2,5-diazabicyclo[2.2.1]heptane-2-carboxylate], which IC50 is on record?
The IC50 was less than 0.05 µM.

For `O=C(NO)c1cnc(N2C[C@@H]3C[C@H]2CN3C(=O)OCc2cccnc2)nc1` [(1S,4S)-pyridin-3-ylmethyl 5-(5-(hydroxycarbamoyl)pyrimidin-2-yl)-2,5-diazabicyclo[2.2.1]heptane-2-carboxylate], which IC50 is on record?
Its IC50 is less than 0.05 µM.

`CC(C)(C)OC(=O)N1C[C@@H]2C[C@H]1CN2c1ncc(C(=O)NO)cn1` [(1S,4S)-tert-butyl 5-(5-(hydroxycarbamoyl)pyrimidin-2-yl)-2,5-diazabicyclo[2.2.1]heptane-2-carboxylate] was tested. Which IC50 did it give?
The IC50 was less than 0.05 µM.

For `O=C(NO)c1cnc(N2C[C@@H]3C[C@H]2CN3C(=O)OC2CCOCC2)nc1` [(1S,4S)-tetrahydro-2H-pyran-4-yl 5-(5-(hydroxycarbamoyl)pyrimidin-2-yl)-2,5-diazabicyclo[2.2.1]heptane-2-carboxylate], which IC50 is on record?
The IC50 was less than 0.05 µM.

same assay, conditions: Table 10; read-out: HDAC Inhibition (IC50 μM) HDAC Enzyme

`O=C(NO)c1cnc(NC(c2ccccc2)c2ccccc2)nc1` [2-(benzhydrylamino)-N-hydroxypyrimidine-5-carboxamide] was tested. Which IC50 did it give?
Its IC50 is less than 0.05 µM.

`O=C(NO)c1cnc(OC(c2ccc(F)cc2)c2ccc(F)cc2)nc1` [2-(bis(4-fluorophenyl)methoxy)-N-hydroxypyrimidine-5-carboxamide] was tested. Which IC50 did it give?
Its IC50 is 0.1 to 1 µM.

With `O=C(NO)c1cnc(NC(c2ccc(F)cc2)c2ccc(F)cc2)nc1` [2-(bis(4-fluorophenyl)methylamino)-N-hydroxypyrimidine-5-carboxamide] as the molecule, how does the IC50 read?
The IC50 was less than 0.05 µM.

How did the IC50 turn out when `O=C(NO)c1cnc(ON=C(c2ccccc2)c2ccccc2)nc1` [2-(diphenylmethyleneaminooxy)-N-hydroxypyrimidine-5-carboxamide] was run?
Its IC50 is 1 to 10 µM.

For `O=C(NO)c1cccc(CN2c3ccccc3Sc3ccccc32)c1` [3-((10H-phenothiazin-10-yl)methyl)-N-hydroxybenzamide], which IC50 is on record?
Its IC50 is 0.1 to 1 µM.

Which IC50 does the source give for `O=C(NO)c1cccc(CN2c3ccccc3Oc3ccccc32)c1` [3-((10H-phenoxazin-10-yl)methyl)-N-hydroxybenzamide] here?
Its IC50 is 1 to 10 µM.

Which IC50 does the source give for `O=C(NO)c1cccc(CN(c2ccccc2)c2ccccc2)c1` [3-((diphenylamino)methyl)-N-hydroxybenzamide] here?
Its IC50 is 1 to 10 µM.

How did the IC50 turn out when `O=C(CCCN1C(=O)c2cccnc2N(C2CC2)c2ccccc21)NO` [4-(11-cyclopropyl-5-oxo-5H-benzo[b]pyrido[2,3-e][1,4]diazepin-6(11H)-yl)-N-hydroxybutanamide] was run?
The IC50 was 1 to 10 µM.

How did the IC50 turn out when `O=C(NO)c1ccc(Cn2c3c(c4ccccc42)CCCCCC3)cc1` [4-((6,7,8,9,10,11-hexahydro-5H-cycloocta[b]indol-5-yl)methyl)-N-hydroxybenzamide] was run?
Its IC50 is 0.1 to 1 µM.

`O=C(NO)c1ccc(CNC2c3ccccc3COc3ccccc32)cc1` (stereo not shown) [4-((6,11-dihydrodibenzo[b,e]oxepin-11-ylamino)methyl)-N-hydroxybenzamide] was tested. Which IC50 did it give?
Its IC50 is 0.1 to 1 µM.

For `O=C(NO)c1ccc(CN2c3ccccc3CCc3ccccc32)cc1` [4-((10,11-dihydro-5H-dibenzo[b,f]azepin-5-yl)methyl)-N-hydroxybenzamide], which IC50 is on record?
Its IC50 is less than 0.05 µM.

For `O=C(NO)c1ccc(CN2C(=O)c3cccnc3N(C3CC3)c3ccccc32)cc1` [4-((11-cyclopropyl-5-oxo-5H-benzo[b]pyrido[2,3-e][1,4]diazepin-6(11H)-yl)methyl)-N-hydroxybenzamide], which IC50 is on record?
Its IC50 is 0.1 to 1 µM.

`O=C(NO)c1ccc(CNC(c2ccccc2)c2ccccc2)cc1` [4-((benzhydrylamino)methyl)-N-hydroxybenzamide] was tested. Which IC50 did it give?
Its IC50 is less than 0.05 µM.

With `O=C(NO)c1ccc(CN(c2ccccc2)c2ccccc2)cc1` [4-((diphenylamino)methyl)-N-hydroxybenzamide] as the molecule, how does the IC50 read?
The IC50 was 0.1 to 1 µM.

How did the IC50 turn out when `O=C(NO)c1ccc(CN2Cc3ccccc3Oc3ccccc32)cc1` [4-(dibenzo[b,f][1,4]oxazepin-10(11H)-ylmethyl)-N-hydroxybenzamide] was run?
The IC50 was less than 0.05 µM.

For `O=C(CCCCCN1c2ccccc2CCc2ccccc21)NO` [6-(10,11-dihydro-5H-dibenzo[b,f]azepin-5-yl)-N-hydroxyhexanamide], which IC50 is on record?
Its IC50 is less than 0.05 µM.

How did the IC50 turn out when `O=C(CCCCCN1C(=O)c2cccnc2N(C2CC2)c2ccccc21)NO` [6-(11-cyclopropyl-5-oxo-5H-benzo[b]pyrido[2,3-e][1,4]diazepin-6(11H)-yl)-N-hydroxyhexanamide] was run?
The IC50 was 0.1 to 1 µM.

Which IC50 does the source give for `O=C(CCCCCCN1C(=O)c2cccnc2N(C2CC2)c2ccccc21)NO` [7-(11-cyclopropyl-5-oxo-5H-benzo[b]pyrido[2,3-e][1,4]diazepin-6(11H)-yl)-N-hydroxyheptanamide] here?
Its IC50 is 0.05 to 0.1 µM.

Which IC50 does the source give for `O=C(CCCCCCN1Cc2ccccc2Oc2ccccc21)NO` [7-(dibenzo[b,f][1,4]oxazepin-10(11H)-yl)-N-hydroxyheptanamide] here?
The IC50 was 0.1 to 1 µM.

Which IC50 does the source give for `O=C(CCCCCCCN1C(=O)c2cccnc2N(C2CC2)c2ccccc21)NO` [8-(11-cyclopropyl-5-oxo-5H-benzo[b]pyrido[2,3-e][1,4]diazepin-6(11H)-yl)-N-hydroxyoctanamide] here?
Its IC50 is 0.1 to 1 µM.

Which IC50 does the source give for `O=C(CCCCCCC(=O)N1Cc2ccccc2Oc2ccccc21)NO` [8-(dibenzo[b,f][1,4]oxazepin-10(11H)-yl)-N-hydroxy-8-oxooctanamide] here?
The IC50 was 0.1 to 1 µM.

For `O=C(/C=C/c1ccc(CN2C(=O)c3cccnc3N(C3CC3)c3ccccc32)cc1)NO` [(E)-3-(4-((11-cyclopropyl-5-oxo-5H-benzo[b]pyrido[2,3-e][1,4]diazepin-6(11H)-yl)methyl)phenyl)-N-hydroxyacrylamide], which IC50 is on record?
Its IC50 is less than 0.05 µM.

Which IC50 does the source give for `O=C(/C=C/c1ccc(CN2c3ccccc3C=Cc3ccccc32)cc1)NO` [(E)-3-(4-(((Z)-5H-dibenzo[b,f]azepin-5-yl)methyl)phenyl)-N-hydroxyacrylamide] here?
The IC50 was 0.05 to 0.1 µM.

For `O=C(/C=C/c1ccc2c(c1)C=Cc1ccccc1N2CC1CC1)NO` [(E)-3-((Z)-5-(cyclopropylmethyl)-5H-dibenzo[b,f]azepin-2-yl)-N-hydroxyacrylamide], which IC50 is on record?
Its IC50 is 0.1 to 1 µM.

`CN1C(=O)CN=C(c2ccccc2)c2ccc(/C=C/C(=O)NO)cc21` [(E)-N-hydroxy-3-((Z)-1-methyl-2-oxo-5-phenyl-2,3-dihydro-1H-benzo[e][1,4]diazepin-8-yl)acrylamide] was tested. Which IC50 did it give?
The IC50 was 0.1 to 1 µM.

`O=C(/C=C/c1ccc2c(c1)NC(=O)CN=C2c1ccccc1)NO` [(E)-N-hydroxy-3-((Z)-2-oxo-5-phenyl-2,3-dihydro-1H-benzo[e][1,4]diazepin-8-yl)acrylamide] was tested. Which IC50 did it give?
The IC50 was 0.05 to 0.1 µM.

same assay, conditions: read-out: HDAC Inhibtion (IC50 μM) HDAC Enzyme

With `O=C(NO)c1ccc(C2Nc3ccccc3Oc3ccccc32)cc1` (stereo not shown) [4-(10,11-dihydrodibenzo[b,f][1,4]oxazepin-11-yl)-N-hydroxybenzamide] as the molecule, how does the IC50 read?
Its IC50 is less than 0.05 µM.

`O=C(NO)c1cnc(N2CCN(C3=Nc4ccccc4Oc4ccc(Cl)cc43)CC2)nc1` [(E)-2-(4-(2-chlorodibenzo[b,f][1,4]oxazepin-11-yl)piperazin-1-yl)-N-hydroxypyrimidine-5-carboxamide] was tested. Which IC50 did it give?
The IC50 was less than 0.05 µM.

With `O=C(NO)c1ccc(CCNC2=Nc3ccccc3Oc3ccccc32)cc1` [(E)-4-(2-(dibenzo[b,f][1,4]oxazepin-11-ylamino)ethyl)-N-hydroxybenzamide] as the molecule, how does the IC50 read?
Its IC50 is 0.1 to 1 µM.

How did the IC50 turn out when `O=C(NO)c1ccc(CNC2=Nc3ccccc3N(C3CC3)c3ccccc32)cc1` [(E)-4-((5-cyclopropyl-5H-dibenzo[b,e][1,4]diazepin-11-ylamino)methyl)-N-hydroxybenzamide] was run?
The IC50 was 0.1 to 1 µM.

For `O=C(NO)c1ccc(CNC2=Nc3ccccc3Oc3ccccc32)cc1` [(E)-4-((dibenzo[b,f][1,4]oxazepin-11-ylamino)methyl)-N-hydroxybenzamide], which IC50 is on record?
The IC50 was less than 0.05 µM.

For `O=C(NO)c1ccc(C2=Nc3ccccc3Oc3ccccc32)c(F)c1` [(E)-4-(dibenzo[b,f][1,4]oxazepin-11-yl)-3-fluoro-N-hydroxybenzamide], which IC50 is on record?
Its IC50 is 1 to 10 µM.

`O=C(NO)c1ccc(C2=Nc3ccccc3Oc3ccccc32)o1` [(E)-5-(dibenzo[b,f][1,4]oxazepin-11-yl)-N-hydroxyfuran-2-carboxamide] was tested. Which IC50 did it give?
Its IC50 is 1 to 10 µM.

How did the IC50 turn out when `O=C(NO)c1ccc(C2=Nc3ccccc3Oc3ccccc32)s1` [(E)-5-(dibenzo[b,f][1,4]oxazepin-11-yl)-N-hydroxythiophene-2-carboxamide] was run?
The IC50 was less than 0.05 µM.

For `O=C(NO)c1ccc(C2=Nc3ccccc3Oc3ccccc32)nc1` [(E)-6-(dibenzo[b,f][1,4]oxazepin-11-yl)-N-hydroxynicotinamide], which IC50 is on record?
Its IC50 is 0.1 to 1 µM.

Which IC50 does the source give for `O=C(NO)c1ccc(-c2ccc3c(c2)C(N2CCOCC2)=Nc2ccccc2O3)cc1` [(E)-N-hydroxy-4-(11-morpholinodibenzo[b,f][1,4]oxazepin-2-yl)benzamide] here?
Its IC50 is less than 0.05 µM.
